From ChEMBL document CHEMBL4476874, “Compounds for the modulation of myc activity” (2018)

Columns and labels:
NCI-H2171 = assay: Antiproliferative activity against human NCI-H2171 cells after 72 hrs by ATPlite assay; type: functional, cell-based; conditions: NCI-H2171, 72 h
[1] = molecular target: Myc proto-oncogene protein (Homo sapiens, UniProt P01106); assay: Inhibition of human c-Myc assessed as reduction in c-Myc/Max/Ebox DNA complex formation using pre-formed complex of c-Myc and biotinylated DNA containing single Ebox-sequence followed by compound addition and further addition of his6-tagged c-Max and incubated for 2 hrs by AlphaScreen assay
Sequence of Myc proto-oncogene protein (P01106 whole entry): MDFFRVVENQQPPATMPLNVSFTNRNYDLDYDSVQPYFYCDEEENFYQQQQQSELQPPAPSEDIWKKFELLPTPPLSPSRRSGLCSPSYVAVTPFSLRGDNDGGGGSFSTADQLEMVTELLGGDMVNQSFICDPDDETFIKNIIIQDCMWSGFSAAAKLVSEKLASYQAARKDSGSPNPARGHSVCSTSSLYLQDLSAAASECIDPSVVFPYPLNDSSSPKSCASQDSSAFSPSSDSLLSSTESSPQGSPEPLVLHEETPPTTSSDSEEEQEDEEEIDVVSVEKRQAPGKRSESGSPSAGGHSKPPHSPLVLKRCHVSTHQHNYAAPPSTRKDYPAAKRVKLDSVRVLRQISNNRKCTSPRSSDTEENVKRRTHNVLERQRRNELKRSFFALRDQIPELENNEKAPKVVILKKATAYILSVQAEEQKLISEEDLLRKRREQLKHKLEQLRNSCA

Row | Compound | IC50 (NCI-H2171) [µM] | IC50 [1] [µM]
1 | CC[C@H](C)NCCC(=O)Nc1sc2c(c1-c1nc3ccccc3s1)CC(C)NC2C (single isomer, unassigned; 620) | 1 to 10 | 
2 | COCCNCCC(=O)Nc1sc2c(c1-c1nc3cc(OC4CCOCC4)ccc3s1)CCNC2 | < 0.3 | 0.3 to 1
3 | O=C(CCN1CCOCC1)Nc1sc2c(c1-c1nc3ccccc3s1)CCNC2 | 0.3 to 1 | 1 to 10
4 | O=C(CCNC1C2CC1C2)Nc1sc2c(c1-c1nc3ccccc3s1)CCNC2 (centres undefined) | 0.3 to 1 | 1 to 10
5 | Cc1noc(C)c1-c1ccc2sc(-c3c(NC(=O)CCNC(C)C)sc4c3CCNC4)nc2c1 | 0.3 to 1 | 1 to 10
6 | CC(=O)Nc1cccc2sc(-c3c(NC(=O)CCNC(C)C)sc4c3CCNC4)nc12 | < 0.3 | 0.3 to 1
7 | COCCNCCC(=O)Nc1sc2c(c1-c1nc3cc(-c4ccccc4NS(C)(=O)=O)ccc3s1)CCNC2 | < 0.3 | 1 to 10
8 | CC(C)NCCC(=O)Nc1sc2c(c1-c1nc3cc(Sc4ccccn4)ccc3s1)CCNC2 | < 0.3 | 1 to 10
9 | COCCNCCC(=O)Nc1sc2c(c1-c1nc3cc(-c4ccc(F)nc4)ccc3s1)CCNC2 | 0.3 to 1 | < 0.3
10 | COCCNCCC(=O)Nc1sc2c(c1-c1nc3ccc(-c4ccncc4C)cc3s1)CCNC2 | < 0.3 | > 10
11 | CC(C)NCCC(=O)Nc1sc2c(c1-c1nc3cc(Sc4ccccc4)ccc3s1)CCNC2 | 0.3 to 1 | > 10
12 | CC(=O)Nc1sc2c(c1-c1nc3ccc(-c4ccncc4)cc3s1)CCNC2 | 0.3 to 1 | 
13 | COCCNCCC(=O)Nc1sc2c(c1-c1nc3ccc(-c4cnc(N)nc4)cc3s1)CCNC2 | < 0.3 | 0.3 to 1
14 | Cc1cc(-c2ccc3sc(-c4c(NC(=O)CCNC(C)C)sc5c4CCNC5)nc3c2)cc(C)n1 | < 0.3 | > 10
15 | CC(C)NCCC(=O)Nc1sc2c(c1-c1nc3cc(-c4ccc(O)cc4)ccc3s1)CCNC2 | 0.3 to 1 | < 0.3
16 | COCCNCCC(=O)Nc1sc2c(c1-c1nc3cc(-c4cncc(C)c4)ccc3s1)CCNC2 | < 0.3 | 0.3 to 1
17 | COCCNCCC(=O)Nc1sc2c(c1-c1nc3ccccc3s1)CCN(C(C)C)C2 | 1 to 10 | 0.3 to 1
18 | COCCNCCC(=O)Nc1sc2c(c1-c1nc3ccc(-c4cncnc4)cc3s1)CCNC2 | < 0.3 | 0.3 to 1
19 | COCCNCCC(=O)Nc1sc2c(c1-c1nc3ccc(-c4ccnc(C)c4)cc3s1)CCNC2 | < 0.3 | 0.3 to 1
20 | COc1ccc2sc(-c3c(NC(=O)CCNC(C)C)sc4c3CCNC4)nc2c1Cl | 0.3 to 1 | < 0.3
21 | CC(C)NCCC(=O)Nc1sc2c(c1-c1nc3cc(-c4cn[nH]c4)ccc3s1)CCNC2 | < 0.3 | < 0.3
22 | COCCNCCC(=O)Nc1sc2c(c1-c1nc3cc(-c4ccc(OC(C)C)nc4)ccc3s1)CCNC2 | < 0.3 | 1 to 10
23 | CC(C)NCCC(=O)Nc1sc2c(c1-c1nc3cc(SC4CCCC4)ccc3s1)CCNC2 | < 0.3 | > 10
24 | COCCNCCC(=O)Nc1sc2c(c1-c1nc3ccc(-c4cncc(N)c4)cc3s1)CCNC2 | < 0.3 | 0.3 to 1

Row | Compound | IC50 (NCI-H2171) [µM] | IC50 [1] [µM]
25 | CSc1cccc2sc(-c3c(NC(=O)CCNC(C)C)sc4c3CCNC4)nc12 | < 0.3 | 0.3 to 1
26 | CC(C)NCCC(=O)Nc1sc2c(c1-c1nc3cc(S(=O)(=O)C4CCCC4)ccc3s1)CCNC2 | < 0.3 | 0.3 to 1
27 | COCCNCCC(=O)Nc1sc2c(c1-c1nc3cc(-c4cccnc4C)ccc3s1)CCNC2 | < 0.3 | 1 to 10
28 | COCCNCCC(=O)Nc1sc2c(c1-c1nc3ccc(-c4cccc(C(=O)N(C)C)c4)cc3s1)CCNC2 | < 0.3 | 0.3 to 1
29 | Cc1nn(C)cc1-c1ccc2sc(-c3c(NC(=O)CCNC(C)C)sc4c3CCNC4)nc2c1 | 1 to 10 | < 0.3
30 | CC(C)NCCC(=O)Nc1sc2c(c1-c1nc3cc(C4CC4)ccc3s1)CCNC2 | < 0.3 | 0.3 to 1
31 | CC[C@H](C)NCCC(=O)Nc1sc2c(c1-c1nc3ccccc3s1)CC(C)NC2C (single isomer, unassigned; 624) | < 0.3 | 
32 | CC(=O)Nc1sc2c(c1-c1nc3ccccc3s1)C[C@@H](C)N[C@H]2C (relative stereo) | 0.3 to 10 | 
33 | COCCNCCC(=O)Nc1sc2c(c1-c1nc3ccccc3s1)C[C@@H](C)NC2 | < 0.3 | 
34 | CC[C@H](C)NCCC(=O)Nc1sc2c(c1-c1nc3ccccc3s1)CC(C)NC2C (single isomer, unassigned; 621) | 1 to 10 | 
35 | COc1cccc(-c2ccc3sc(-c4c(NC(=O)CCNC(C)C)sc5c4CCNC5)nc3c2)c1 |  | 1 to 10
36 | COCCNCCC(=O)Nc1sc2c(c1-c1nc3ccc(-c4cccc(C#N)c4)cc3s1)CCNC2 |  | 1 to 10
37 | COCCNCCC(=O)Nc1sc2c(c1-c1nc3ccc(-c4ccc(C(=O)N5CCOCC5)cc4)cc3s1)CCNC2 |  | 0.3 to 1
38 | COCCNCCC(=O)Nc1sc2c(c1-c1nc3ccc(-c4cccc(C(F)(F)F)c4)cc3s1)CCNC2 |  | > 10
39 | CC(C)N1CCc2c(sc(NC(=O)CCNc3ccccc3)c2-c2nc3ccccc3s2)C1 |  | > 10
40 | COCCNCCC(=O)Nc1sc2c(c1-c1nc3cc(-c4ccncc4Cl)ccc3s1)CCNC2 |  | > 10
41 | COCCNCCC(=O)Nc1sc2c(c1-c1nc3ccc(-c4cnc(OC)c(OC)c4)cc3s1)CCNC2 |  | 1 to 10
42 | COCCNCCC(=O)Nc1sc2c(c1-c1nc3cc(-c4cccc5cccnc45)ccc3s1)CCNC2 |  | > 10
43 | CC(C)NCCC(=O)Nc1sc2c(c1-c1nc3cc(C(C)O)ccc3s1)CCNC2 (centres undefined) |  | < 0.3
44 | CC(C)N1CCc2c(sc(NC(=O)CCNc3ccc(-c4nnn[nH]4)cc3)c2-c2nc3ccccc3s2)C1 |  | > 10
45 | COCCNCCC(=O)Nc1sc2c(c1-c1nc3ccc(-c4ccc(OC)nc4)cc3s1)CCNC2 |  | 1 to 10
46 | CC(NCCC(=O)Nc1sc2c(c1-c1nc3ccccc3s1)CCN(C(C)C)C2)c1ccncc1 (centres undefined) |  | 1 to 10
47 | COCCNCCC(=O)Nc1sc2c(c1-c1nc3ccc(-c4cnccc4C)cc3s1)CCNC2 |  | > 10
48 | COCCNCCC(=O)Nc1sc2c(c1-c1nc3cc(-c4ccc5c(c4)OCO5)ccc3s1)CCNC2 |  | > 10

Row | Compound | IC50 (NCI-H2171) [µM] | IC50 [1] [µM]
49 | COCCNCCC(=O)Nc1sc2c(c1-c1nc3cc(-c4cnc(OC)c(OC)c4)ccc3s1)CCNC2 |  | 1 to 10
50 | COCCNCCC(=O)Nc1sc2c(c1-c1nc3ccc(-c4c(C)nn(C)c4C)cc3s1)CCNC2 |  | > 10
51 | CC(C)N1CCc2c(sc(NC(=O)CCNc3cccc(F)c3)c2-c2nc3ccccc3s2)C1 |  | > 10
52 | COCCNCCC(=O)Nc1sc2c(c1-c1nc3cc(-c4cccc(C(=O)N5CCN(C)CC5)c4)ccc3s1)CCNC2 |  | 1 to 10
53 | CC(C)N1CCc2c(sc(NC(=O)CCNc3cccnc3)c2-c2nc3ccccc3s2)C1 |  | 1 to 10
54 | COCCNCCC(=O)Nc1sc2c(c1-c1nc3cc(-c4ccc5c(c4)NC(=O)CO5)ccc3s1)CCNC2 |  | 1 to 10
55 | COCCNCCC(=O)Nc1sc2c(c1-c1nc3cc(-c4ccc(O)c(F)c4)ccc3s1)CCNC2 |  | > 10
56 | O=C(Nc1sc2c(c1-c1nc3ccccc3s1)CCNC2)C1CNC1 |  | < 0.3
57 | CC(C)NCCC(=O)Nc1sc2c(c1-c1nc3cc(-c4ccccc4)ccc3s1)CCNC2 |  | 0.3 to 1
58 | COCCNCCC(=O)Nc1sc2c(c1-c1nc3cc(-c4ccc5ncccc5c4)ccc3s1)CCNC2 |  | > 10
59 | COCCNCCC(=O)Nc1sc2c(c1-c1nc3ccc(-c4cccc(C(=O)N5CCN(C)CC5)c4)cc3s1)CCNC2 |  | 0.3 to 1
60 | COCCNCCC(=O)Nc1sc2c(c1-c1nc3ccc(-c4ccc5ncccc5c4)cc3s1)CCNC2 |  | > 10
61 | CNC(=O)Nc1ccc(-c2ccc3sc(-c4c(NC(=O)CCNCCOC)sc5c4CCNC5)nc3c2)cc1 |  | 1 to 10
62 | COCCNCCC(=O)Nc1sc2c(c1-c1nc3ccc(-c4cc5ccccc5[nH]4)cc3s1)CCNC2 |  | > 10
63 | COCCNCCC(=O)Nc1sc2c(c1-c1nc3ccc(-c4ccccc4O)cc3s1)CCNC2 |  | > 10
64 | COCCNCCC(=O)Nc1sc2c(c1-c1nc3ccc(-c4ccc(OC)c(OC)c4)cc3s1)CCNC2 |  | > 10
65 | COCCNCCC(=O)Nc1sc2c(c1-c1nc3ccc(-c4ccc5c(c4)OCO5)cc3s1)CCNC2 |  | > 10
66 | COCCNCCC(=O)Nc1sc2c(c1-c1nc3cc(-c4cccnc4OC)ccc3s1)CCNC2 |  | > 10
67 | COc1ccccc1-c1ccc2sc(-c3c(NC(=O)CCNC(C)C)sc4c3CCNC4)nc2c1 |  | 1 to 10
68 | COCCNCCC(=O)Nc1sc2c(c1-c1nc3cc(F)ccc3s1)CCN[C@H]2C | < 0.3 | 
69 | CC(C)NCCC(=O)Nc1sc2c(c1-c1nc3cc(C4=CCNCC4)ccc3s1)CCNC2 |  | < 0.3
70 | COCCNCCC(=O)Nc1sc2c(c1-c1nc3ccc(-c4cc(F)cnc4OC)cc3s1)CCNC2 |  | > 10
71 | COCCNCCC(=O)Nc1sc2c(c1-c1nc3ccc(-c4ccc(F)nc4F)cc3s1)CCNC2 |  | > 10
